The source made the active and inactive calls.
Legend:
[1] = HEK-293T viability loss after treatment – luminescence, T-cell screen hits, cytotoxicity control for TCR NF-kB inhibitor project, dose response (AID 489026); format: functional, cell-based;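 note: cells exposed to compound about 14 hours before the viability readout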
[2] = target: T1, Histone-lysine N-methyltransferase NSD2 (Homo sapiens, UniProt O96028); format: biochemical
T1 sequence (O96028 whole entry): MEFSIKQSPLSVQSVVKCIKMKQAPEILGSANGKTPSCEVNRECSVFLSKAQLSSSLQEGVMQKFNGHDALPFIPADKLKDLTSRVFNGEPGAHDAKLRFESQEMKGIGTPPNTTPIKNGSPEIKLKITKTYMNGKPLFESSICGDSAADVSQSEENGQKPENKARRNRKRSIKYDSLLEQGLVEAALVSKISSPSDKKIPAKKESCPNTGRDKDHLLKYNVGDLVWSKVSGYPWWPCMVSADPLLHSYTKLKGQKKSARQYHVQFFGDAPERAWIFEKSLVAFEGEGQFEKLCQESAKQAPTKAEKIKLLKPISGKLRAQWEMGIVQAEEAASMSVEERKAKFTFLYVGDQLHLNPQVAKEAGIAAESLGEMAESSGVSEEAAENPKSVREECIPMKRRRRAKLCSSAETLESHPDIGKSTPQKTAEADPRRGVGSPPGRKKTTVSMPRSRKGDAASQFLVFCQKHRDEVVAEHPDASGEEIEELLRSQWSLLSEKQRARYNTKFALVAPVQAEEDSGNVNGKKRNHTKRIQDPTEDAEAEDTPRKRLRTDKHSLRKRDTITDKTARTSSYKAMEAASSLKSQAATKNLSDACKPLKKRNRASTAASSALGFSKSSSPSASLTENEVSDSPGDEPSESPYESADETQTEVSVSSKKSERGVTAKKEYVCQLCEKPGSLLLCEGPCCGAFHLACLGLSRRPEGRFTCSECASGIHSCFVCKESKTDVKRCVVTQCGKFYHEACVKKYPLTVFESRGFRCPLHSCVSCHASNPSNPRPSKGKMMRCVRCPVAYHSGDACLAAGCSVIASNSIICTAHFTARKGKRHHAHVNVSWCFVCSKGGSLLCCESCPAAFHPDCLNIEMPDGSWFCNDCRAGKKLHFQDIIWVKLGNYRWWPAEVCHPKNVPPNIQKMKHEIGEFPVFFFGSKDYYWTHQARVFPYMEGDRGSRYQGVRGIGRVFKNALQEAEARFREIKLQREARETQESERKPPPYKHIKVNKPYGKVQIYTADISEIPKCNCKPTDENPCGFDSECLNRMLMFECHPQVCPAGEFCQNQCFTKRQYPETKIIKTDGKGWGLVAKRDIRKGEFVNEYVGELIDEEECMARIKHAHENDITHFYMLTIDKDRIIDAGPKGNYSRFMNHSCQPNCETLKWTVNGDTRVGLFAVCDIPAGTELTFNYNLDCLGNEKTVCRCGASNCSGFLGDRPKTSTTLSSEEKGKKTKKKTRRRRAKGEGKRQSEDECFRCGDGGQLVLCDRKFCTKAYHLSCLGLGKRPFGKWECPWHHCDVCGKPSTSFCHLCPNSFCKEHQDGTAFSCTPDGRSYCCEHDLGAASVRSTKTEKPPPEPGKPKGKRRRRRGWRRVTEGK

[3] = target: T2, Microphthalmia-associated transcription factor (Homo sapiens, UniProt O75030); test: reducers of TRPM1 reporter luminescence, concentration series – cell-based, SK-MEL-5, cherry-picked, set 3, MITF inhibitor project, dose response (AID 493073); format: functional;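 note: SK-MEL-5 melanoma cells with luciferase driven by the MITF target TRPM1 promoter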
T2 sequence (O75030 whole entry): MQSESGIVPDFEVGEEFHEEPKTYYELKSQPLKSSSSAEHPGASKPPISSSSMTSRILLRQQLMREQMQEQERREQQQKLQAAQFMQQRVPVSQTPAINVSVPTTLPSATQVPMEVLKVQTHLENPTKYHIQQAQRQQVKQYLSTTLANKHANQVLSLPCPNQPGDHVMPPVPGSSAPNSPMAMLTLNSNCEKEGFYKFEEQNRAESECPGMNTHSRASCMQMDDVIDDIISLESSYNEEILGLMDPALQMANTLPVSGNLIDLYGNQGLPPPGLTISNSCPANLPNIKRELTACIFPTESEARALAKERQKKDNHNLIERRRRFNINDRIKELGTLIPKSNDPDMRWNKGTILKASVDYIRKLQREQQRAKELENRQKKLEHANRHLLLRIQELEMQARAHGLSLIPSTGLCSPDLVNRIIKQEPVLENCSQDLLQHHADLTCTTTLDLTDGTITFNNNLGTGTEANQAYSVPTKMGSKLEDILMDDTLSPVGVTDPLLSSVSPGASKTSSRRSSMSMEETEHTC

HEK293 = test: inhibition of NOD1-driven NF-kB reporter – cell-based, luminescence, uHTS, primary screen (AID 1578); format: functional; settings: Homo sapiens
[4] = Luminescence Cell-Based Secondary HTS screen to identify cytotoxic compounds of NIH3T3 cells. [Related pubchem assays: 1885, 1968 ]; format: functional

Compound: Cc1ccc(NC(=O)C2=C(c3ccccc3)S(=O)(=O)CCS2(=O)=O)cc1
- IC50 [1]: > 80 µM (inactive)

Compound: O=C(O)CSc1cc(NS(=O)(=O)c2ccc(Br)cc2)c2ccccc2c1O
- AC50 [2]: 1.65 µM (active)

Compound: O=C(CNc1cccc2ccccc12)N/N=C/c1ccc([N+](=O)[O-])o1
- AC50 [3]: 5.05 µM (active)
- EC50 (HEK293): 3.28 µM (active)
- EC50 [4]: 17.5 µM (active)
